Reference: ChEMBL document CHEMBL1125092, “Nonneurotoxic tetralin and indan analogues of 3,4-(methylenedioxy)amphetamine (MDA)” (J Med Chem, 1990)

Assays:
[1] = species on record: Rattus norvegicus; assay: Compounds were evaluated for binding of [3H]paroxetine to rat brain cortical homogenate and number of binding sites (Bmax) for serotonin; type: tissue-based
[2] = Binding affinity was determined towards serotonin uptake site in presence of [3H]paroxetine radioligand in rat brain cortical homogenate; type: tissue-based
[3] = Binding affinity was determined towards serotonin uptake site in presence of [3H]paroxetine radioligand in rat hippocampal homogenate; type: tissue-based, Hippocampus
[4] = species on record: Rattus norvegicus; assay: Compounds were evaluated for binding of [3H]paroxetine to rat hippocampal homogenate and number of binding sites (Bmax) for serotonin; type: tissue-based; conditions: Hippocampus
[5] = tested on: Rattus norvegicus; assay: Hallucinogenic property was determined in groups of LSD trained rats and percentage of animals disrupted was reported at a dose 13.18 (umol/kg),(number of animals = 15); type: functional
[6] = tested on: Rattus norvegicus; assay: Hallucinogenic property was determined in groups of LSD trained rats and percentage of animals disrupted was reported at a dose 17.57(umol/kg), (number of animals =21); type: functional
[7] = tested on: Rattus norvegicus; assay: Hallucinogenic property was determined in groups of LSD trained rats and percentage of animals disrupted was reported at a dose 2.2 (umol/kg), (number of animals = 15); type: functional
[8] = tested on: Rattus norvegicus; assay: Hallucinogenic property was determined in groups of MDMA trained rats and percentage of animals disrupted was reported at a dose 17.57(umol/kg), (number of animals =11); type: functional
[9] = tested on: Rattus norvegicus; assay: Hallucinogenic property was determined in groups of MDMA trained rats and percentage of animals disrupted was reported at a dose 2.2 (umol/kg), (number of animals =9); type: functional
[10] = tested on: Rattus norvegicus; assay: Hallucinogenic property was determined in groups of MDMA trained rats and percentage of animals disrupted was reported at a dose 4.39 (umol/kg),(number of animals = 9); type: functional
[11] = tested on: Rattus norvegicus; assay: Hallucinogenic property was determined in groups of MDMA trained rats and percentage of animals disrupted was reported at a dose 8.78 (umol/kg), (number of animals = 8); type: functional
[12] = tested on: Rattus norvegicus; assay: Hallucinogenic property was determined in groups of LSD trained rats and percentage of animals disrupted was reported at a dose 8.78 (umol/kg), (number of animals = 16); type: functional
[13] = tested on: Rattus norvegicus; assay: Hallucinogenic property was determined in groups of LSD trained rats and percentage of animals disrupted was reported at 4.39 (umol/kg),(number of animals =11); type: functional
[14] = tested on: Rattus norvegicus; assay: Monoamine levels in at hippocampus were evaluated after subcutaneous administration of 40 mg/kg for NE; type: functional
[15] = tested on: Rattus norvegicus; assay: Monoamine levels in rat brain were evaluated after subcutaneous administration of 40 mg/kg for 5-HIAA; type: functional
[16] = tested on: Rattus norvegicus; assay: Monoamine levels in rat brain were evaluated after subcutaneous administration of 40 mg/kg for 5-HT; type: functional
[17] = tested on: Rattus norvegicus; assay: Monoamine levels in rat brain were evaluated after subcutaneous administration of 40 mg/kg for DA; type: functional
[18] = tested on: Rattus norvegicus; assay: Monoamine levels in rat brain were evaluated after subcutaneous administration of 40 mg/kg for DOPAC; type: functional
[19] = tested on: Rattus norvegicus; assay: Monoamine levels in rat brain were evaluated after subcutaneous administration of 40 mg/kg for HVA; type: functional
[20] = tested on: Rattus norvegicus; assay: Monoamine levels in rat hippocampus were evaluated after subcutaneous administration of 40 mg/kg for 5-HIAA; type: functional
[21] = tested on: Rattus norvegicus; assay: Monoamine levels in rat hippocampus were evaluated after subcutaneous administration of 40 mg/kg for 5-HT; type: functional
[22] = tested on: Rattus norvegicus; assay: Tested for stimulus generation in rats trained to discriminate LSD from saline at a dose 2.2 (umol/kg), (number of animals = 15); type: functional
[23] = tested on: Rattus norvegicus; assay: Tested for stimulus generation in rats trained to discriminate +/-MDMA from saline at 17.57 (umol/kg), (number of animals =11); type: functional
[24] = tested on: Rattus norvegicus; assay: Tested for stimulus generation in rats trained to discriminate LSD from saline at a dose 4.39 (umol/kg),(number of animals =11); type: functional
[25] = tested on: Rattus norvegicus; assay: Tested for stimulus generation in rats trained to discriminate +/-MDMA from saline at 8.78 (umol/kg), (number of animals = 8); type: functional
[26] = tested on: Rattus norvegicus; assay: Tested for stimulus generation in rats trained to discriminate LSD from saline at a dose 8.78 (umol/kg), (number of animals = 16); type: functional
[27] = tested on: Rattus norvegicus; assay: Tested for stimulus generation in rats trained to discriminate +/-MDMA from saline at 2.2 (umol/kg), (number of animals =9); type: functional
[28] = tested on: Rattus norvegicus; assay: Tested for stimulus generation in rats trained to discriminate +/-MDMA from saline at 4.39 (umol/kg),(number of animals = 9); type: functional
[29] = tested on: Rattus norvegicus; assay: Monoamine levels in rat brain were evaluated after subcutaneous administration of 40 mg/kg for NE; type: functional

With `NC1CCc2cc3c(cc2C1)OCO3` (centres undefined) the Bmax [1] was 964 fM/g, the Kd [2] was 102 pM and the Kd [3] was 118 pM. For the same molecule, the Bmax [4] was 778 fM/g, the D [5] was 67% and the D [6] was 64%. The D [7] was 47%, the D [8] was 27% and the D [9] was 11%. It also gave a D [10] of 11%, a D [11] of 0% and a D [12] of 50%. For the same molecule, the D [13] was 27%, the Monoamine level [14] was 484 pg/mg and the Monoamine level [15] was 370 pg/mg. The Monoamine level [16] was 356 pg/mg, the Monoamine level [17] was 151 pg/mg and the Monoamine level [18] was 213 pg/mg. It also gave a Monoamine level [19] of 262 pg/mg, a Monoamine level [20] of 549 pg/mg and a Monoamine level [21] of 256 pg/mg. For the same molecule, the SDL [22] was 25%, the SDL [23] was 88% and the SDL [24] was 38%. For the same molecule, the SDL [25] was 63%, the SDL [26] was 63% and the SDL [27] was 13%. It also gave an SDL [28] of 50% and a Monoamine level [29] of 367 pg/mg.
